Assay results from PubChem BioAssay (NCI).
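48-hour exposure; five concentrations; linearly interpolated endpoints. GI50 = concentration required for 50% inhibition of growth. At the TGI there is no net growth.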

Experiments:
Test in all cases: inhibition of tumour cell growth, NCI panel, 48 h
[1] = system: A498 renal
[2] = system: SNB-19 CNS
[3] = system: EKVX NSCLC
[4] = system: HCT-116 colon
[5] = system: HL-60(TB) leukemia
[6] = system: BT-549 breast
[7] = system: SF-295 CNS
[8] = system: SN12C renal
[9] = system: SK-MEL-28 melanoma
[10] = system: HOP-62 NSCLC
[11] = system: UACC-62 melanoma
[12] = system: HS 578T breast
[13] = system: OVCAR-3 ovarian
[14] = system: DU-145 prostate
[15] = system: M14 melanoma
[16] = system: SK-MEL-2 melanoma
[17] = system: A549 NSCLC
[18] = system: PC-3 prostate
[19] = system: MALME-3M melanoma
[20] = system: RPMI-8226 leukemia
[21] = system: SF-268 CNS
[22] = system: U251 CNS
[23] = system: CCRF-CEM leukemia
[24] = system: MDA-MB-231 breast
[25] = system: MDA-MB-435
[26] = system: K-562 leukemia
[27] = system: UO-31 renal
[28] = system: OVCAR-8 ovarian
[29] = system: SF-539 CNS
[30] = system: SNB-75 CNS
[31] = system: RXF 393 renal
[32] = system: MOLT-4 leukemia
[33] = system: SW-620 colon
[34] = system: NCI-H226 lung
[35] = system: 786-0 renal
[36] = system: OVCAR-5 ovarian
[37] = system: KM12 colon
[38] = system: ACHN renal
[39] = system: HOP-92 NSCLC
[40] = system: IGROV1 ovarian
[41] = system: NCI-H522 lung
[42] = system: SK-MEL-5 melanoma
[43] = system: COLO 205 colon
[44] = system: HCC-2998 colon
[45] = system: MDA-MB-468 breast
[46] = system: SR leukemia
[47] = system: UACC-257 melanoma
[48] = system: TK-10 renal
[49] = system: SK-OV-3 ovarian
[50] = system: T-47D breast
[51] = system: OVCAR-4 ovarian
[52] = system: HCT-15 colon
[53] = system: CAKI-1 renal
[54] = system: NCI-H460 lung

COC(=O)C[C@](O)(CCC(C)C)C(=O)O[C@@H]1C(OC)=C[C@]23CCCN2CCc2cc4c(cc2[C@H]13)OCO4
GI50 [1]: 17.3 nM
TGI [1]: 163 nM
GI50 [2]: 36 nM
TGI [2]: 305 nM
GI50 [3]: 116 nM
TGI [3]: 775 nM
GI50 [4]: 36.3 nM
TGI [4]: 1050 nM
GI50 [5]: 14.3 nM
TGI [5]: 65.5 nM
GI50 [6]: 90.7 nM
TGI [6]: 412 nM
GI50 [7]: 135 nM
TGI [7]: 662 nM
GI50 [8]: 259 nM
TGI [8]: 1110 nM
GI50 [9]: 70.6 nM
TGI [9]: 352 nM
GI50 [10]: 244 nM
TGI [10]: 1480 nM
GI50 [11]: 144 nM
TGI [11]: 603 nM
GI50 [12]: 138 nM
TGI [12]: 545 nM
GI50 [13]: 39 nM
TGI [13]: 306 nM
GI50 [14]: 145 nM
TGI [14]: 645 nM
GI50 [15]: 50.4 nM
TGI [15]: 196 nM
GI50 [16]: 216 nM
TGI [16]: 642 nM
GI50 [17]: 52.1 nM
TGI [17]: 10700 nM
GI50 [18]: 52.1 nM
TGI [18]: 756 nM
GI50 [19]: 20.1 nM
TGI [19]: 68.4 nM
GI50 [20]: 33.7 nM
TGI [20]: 132 nM
GI50 [21]: 192 nM
TGI [21]: 709 nM
GI50 [22]: 39.2 nM
TGI [22]: 4020 nM
GI50 [23]: 34.4 nM
TGI [23]: 431 nM
GI50 [24]: 247 nM
TGI [24]: 690 nM
GI50 [25]: 101 nM
TGI [25]: 351 nM
GI50 [26]: 28.9 nM
TGI [26]: 116 nM
GI50 [27]: 49.8 nM
TGI [27]: 449 nM
GI50 [28]: 130 nM
TGI [28]: 787 nM
GI50 [29]: 23 nM
TGI [29]: 58 nM
GI50 [30]: 156 nM
TGI [30]: 417 nM
GI50 [31]: 39.9 nM
TGI [31]: 285 nM
GI50 [32]: 20.2 nM
TGI [32]: 140 nM
GI50 [33]: 57.5 nM
TGI [33]: 473 nM
GI50 [34]: 31.7 nM
TGI [34]: 351 nM
GI50 [35]: 104 nM
TGI [35]: 544 nM
GI50 [36]: 170 nM
TGI [36]: 596 nM
GI50 [37]: 56.8 nM
TGI [37]: 546 nM
GI50 [38]: 40.2 nM
TGI [38]: 272 nM
GI50 [39]: 208 nM
TGI [39]: 724 nM
GI50 [40]: 64.7 nM
TGI [40]: 525 nM
GI50 [41]: 21.2 nM
TGI [41]: 65.3 nM
GI50 [42]: 43.1 nM
TGI [42]: 181 nM
GI50 [43]: 91.6 nM
TGI [43]: 397 nM
GI50 [44]: 26.9 nM
TGI [44]: 129 nM
GI50 [45]: 25.5 nM
TGI [45]: 115 nM
GI50 [46]: 18.2 nM
TGI [46]: 57.2 nM
GI50 [47]: 194 nM
TGI [47]: 810 nM
GI50 [48]: 136 nM
TGI [48]: 1090 nM
GI50 [49]: 159 nM
TGI [49]: 1620 nM
GI50 [50]: 191 nM
TGI [50]: 919 nM
GI50 [51]: 39.5 nM
TGI [51]: 354 nM
GI50 [52]: 36.4 nM
TGI [52]: 1270 nM
GI50 [53]: 179 nM
TGI [53]: 988 nM
GI50 [54]: 21.2 nM
TGI [54]: 82 nM
